“And” between values parts separate entries of the source, which are not always exact repeats. Identical values can stand only once. Inconclusive results and toxic doses are left out. Rule for the calls: active = survival T/C of 150% or more; inactive = T/C below 125% in these data.
System: CD2F1 mice, L1210 leukemia ip, survival T/C
Test: NCI In Vivo Anticancer Drug Screen. Data for tumor model L1210 Leukemia (intraperitoneal) in CD2F1 (CDF1) mice
Conditions: endpoint: mean survival time, higher = longer survival
Method in brief: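 Ratio T/C, where T is the treated-group value and C the vehicle-dosed control value, from mice implanted with a transplantable tumor.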

[1] = dose: 50.0 mg/kg/injection, schedule: Q01DX001 (ip), vehicle: saline
[2] = dose: 100.0 mg/kg/injection, schedule: Q01DX001 (ip), vehicle: saline
[3] = dose: 200.0 mg/kg/injection, schedule: Q01DX001 (ip), vehicle: saline
[4] = dose: 100.0 mg/kg/injection, schedule: Q04DX003 (ip), vehicle: saline with Tween-80
[5] = dose: 200.0 mg/kg/injection, schedule: Q04DX003 (ip), vehicle: saline with Tween-80
[6] = dose: 400.0 mg/kg/injection, schedule: Q04DX003 (ip), vehicle: saline with Tween-80
[7] = dose: 100.0 mg/kg/injection, schedule: Q04DX002 (ip), vehicle: saline
[8] = dose: 100.0 mg/kg/injection, schedule: Q01DX009 (ip), vehicle: saline with Tween-80
[9] = dose: 200.0 mg/kg/injection, schedule: Q01DX009 (ip), vehicle: saline with Tween-80
[10] = dose: 400.0 mg/kg/injection, schedule: Q01DX009 (ip), vehicle: saline with Tween-80
[11] = dose: 100.0 mg/kg/injection, schedule: Q04DX003 (ip), vehicle: saline
[12] = dose: 200.0 mg/kg/injection, schedule: Q04DX003 (ip), vehicle: saline
[13] = dose: 50.0 mg/kg/injection, schedule: Q01DX009 (ip), vehicle: Klucel (hydroxypropylcellulose) (HPC)
[14] = dose: 100.0 mg/kg/injection, schedule: Q01DX009 (ip), vehicle: Klucel (hydroxypropylcellulose) (HPC)
[15] = dose: 200.0 mg/kg/injection, schedule: Q01DX009 (ip), vehicle: Klucel (hydroxypropylcellulose) (HPC)
[16] = dose: 400.0 mg/kg/injection, schedule: Q04DX003 (ip), vehicle: saline

Measured: T/C

CC12CCC(O)CC1CCC1C2CCC2(C)C(C3COC(=O)C3)CCC12 (centres undefined)
inactive: [1] 98 % of control | [2] 98 % of control | [3] 96 % of control

CCCCCCCNC(=O)Nc1cc([N+](=O)[O-])ccc1C
inactive: [4] 93 % of control | [5] 94 % of control | [6] 98 % of control

O=S(=O)(O)O.[NH2-].[NH2-].[Pt+2]
inactive: dose: 0.63 mg/kg/injection, schedule: Q04DX003 (ip), vehicle: dextrose 98 % of control | dose: 1.25 mg/kg/injection, schedule: Q04DX003 (ip), vehicle: dextrose 108 % of control | dose: 5.0 mg/kg/injection, schedule: Q04DX003 (ip), vehicle: dextrose 95 % of control

CCCCCCCCCCCCOP(OCC)OCCCCCCCCCCCC
inactive: dose: 25.0 mg/kg/injection, schedule: Q04DX002 (ip), vehicle: saline with Tween-80 104 % of control | dose: 50.0 mg/kg/injection, schedule: Q04DX002 (ip), vehicle: saline with Tween-80 101 % of control | dose: 100.0 mg/kg/injection, schedule: Q04DX002 (ip), vehicle: saline with Tween-80 96 % of control and 101 % of control

CNC1CC2CCC1(C)C2(C)C (centres undefined)
inactive: dose: 25.0 mg/kg/injection, schedule: Q04DX002 (ip), vehicle: saline 101 % of control | dose: 50.0 mg/kg/injection, schedule: Q04DX002 (ip), vehicle: saline 112 % of control | [7] 96 % of control

CC(=O)OCc1ccc(Cl)cc1Cl
inactive: [8] 98 % of control | [9] 104 % of control | [10] 95 % of control

O=P(O)(O)CP(=O)(O)O.[NH-]CC[NH-].[NH-]CC[NH-].[Pt+2].[Pt+2]
inactive: dose: 3.13 mg/kg/injection, schedule: Q04DX003 (ip), vehicle: distilled water + Tween-80 119 % of control | dose: 6.25 mg/kg/injection, schedule: Q04DX003 (ip), vehicle: distilled water + Tween-80 92 % of control | dose: 12.5 mg/kg/injection, schedule: Q04DX003 (ip), vehicle: distilled water + Tween-80 103 % of control | dose: 25.0 mg/kg/injection, schedule: Q04DX003 (ip), vehicle: distilled water + Tween-80 109 % of control | dose: 50.0 mg/kg/injection, schedule: Q04DX003 (ip), vehicle: distilled water + Tween-80 103 % of control | dose: 100.0 mg/kg/injection, schedule: Q04DX003 (ip), vehicle: distilled water + Tween-80 109 % of control | dose: 200.0 mg/kg/injection, schedule: Q04DX003 (ip), vehicle: distilled water + Tween-80 90 % of control

CC(=O)COc1ccccc1NC(C)=O
inactive: [4] 91 % of control | [5] 102 % of control | [6] 91 % of control

Nc1cc2c(c[n+](CCCCCCCC[n+]3cc4c5ccccc5c(N)cc4c4ccccc43)c3ccccc23)c2ccccc12
inactive: dose: 0.78 mg/kg/injection, schedule: Q04DX003 (ip), vehicle: other 114 % of control | dose: 3.13 mg/kg/injection, schedule: Q04DX003 (ip), vehicle: other 124 % of control | dose: 50.0 mg/kg/injection, schedule: Q04DX003 (ip), vehicle: other 124 % of control and 103 % of control
active: dose: 1.56 mg/kg/injection, schedule: Q04DX003 (ip), vehicle: other 157 % of control | dose: 12.5 mg/kg/injection, schedule: Q04DX003 (ip), vehicle: other 157 % of control

COC(=O)c1nccnc1N
inactive: [7] 96 % of control | dose: 200.0 mg/kg/injection, schedule: Q04DX002 (ip), vehicle: saline 105 % of control | dose: 400.0 mg/kg/injection, schedule: Q04DX002 (ip), vehicle: saline 113 % of control

C1CCC2NN=NC2C1 (centres undefined)
inactive: dose: 100.0 mg/kg/injection, schedule: Q01DX001 (ip), vehicle: saline with Tween-80 104 % of control | dose: 200.0 mg/kg/injection, schedule: Q01DX001 (ip), vehicle: saline with Tween-80 98 % of control

CSc1ccc(NC(=O)Nc2nccs2)cc1
inactive: dose: 100.0 mg/kg/injection, schedule: Q01DX009 (ip), vehicle: saline sonified 103 % of control | dose: 200.0 mg/kg/injection, schedule: Q01DX009 (ip), vehicle: saline sonified 106 % of control | dose: 400.0 mg/kg/injection, schedule: Q01DX009 (ip), vehicle: saline sonified 100 % of control

C[S+](C)CC(C)(C)CI
inactive: dose: 25.0 mg/kg/injection, schedule: Q01DX001 (ip), vehicle: saline 100 % of control | [1] 110 % of control | [2] 100 % of control and 101 % of control

CC(=O)OCC1OC(OC(C)=O)C([NH-])C(OC(C)=O)C1OC(C)=O.CC(=O)OCC1OC(OC(C)=O)C([NH-])C(OC(C)=O)C1OC(C)=O.[Cl][Pt+2][Cl] (centres undefined)
inactive: dose: 12.5 mg/kg/injection, schedule: Q04DX003 (ip), vehicle: saline 98 % of control | dose: 25.0 mg/kg/injection, schedule: Q04DX003 (ip), vehicle: saline 93 % of control | dose: 50.0 mg/kg/injection, schedule: Q04DX003 (ip), vehicle: saline 95 % of control | [11] 90 % of control | [12] 95 % of control

O=Nc1c(-c2ccccc2)n(O)[n+]([O-])c1-c1ccccc1
inactive: [13] 89 % of control | [14] 89 % of control | [15] 97 % of control

CC(CC(C)C(=O)O)C(=O)O (centres undefined)
inactive: [8] 100 % of control | [9] 105 % of control

CC(C)C(C)CCC(C)C1CCC2=C3CCC4CC(O)CCC4(C)C3CCC21C (centres undefined)
inactive: dose: 75.0 mg/kg/injection, schedule: Q01DX001 (ip), vehicle: saline with Tween-80 89 % of control | dose: 150.0 mg/kg/injection, schedule: Q01DX001 (ip), vehicle: saline with Tween-80 92 % of control | dose: 300.0 mg/kg/injection, schedule: Q01DX001 (ip), vehicle: saline with Tween-80 100 % of control

O=[P+](O)C(O)c1ccccc1 (centres undefined)
inactive: [11] 108 % of control | [12] 111 % of control | [16] 117 % of control

Cc1ccc(C)c(N=Nc2ccc(O)cc2)c1
inactive: [4] 104 % of control | [5] 100 % of control | [6] 105 % of control

CC(=O)C(C)(NCc1ccccc1)c1ccccc1 (centres undefined)
inactive: [13] 97 % of control | dose: 100.0 mg/kg/injection, schedule: Q01DX001 (ip), vehicle: other 100 % of control | [2] 101 % of control | [14] 100 % of control | dose: 200.0 mg/kg/injection, schedule: Q01DX001 (ip), vehicle: other 92 % of control | [3] 95 % of control | [15] 100 % of control | dose: 400.0 mg/kg/injection, schedule: Q01DX001 (ip), vehicle: other 107 % of control | dose: 400.0 mg/kg/injection, schedule: Q01DX001 (ip), vehicle: saline 93 % of control | dose: 400.0 mg/kg/injection, schedule: Q01DX009 (ip), vehicle: Klucel (hydroxypropylcellulose) (HPC) 106 % of control

Cc1c(Cl)cccc1NC(=O)c1ccc([N+](=O)[O-])cc1
inactive: [4] 95 % of control | [5] 101 % of control | [6] 86 % of control

[Br][Sn]([Br])([c]1cccc2ccccc12)[c]1cccc2ccccc12
inactive: [4] 105 % of control | [5] 109 % of control | [6] 97 % of control

CC[C@H](CC[C@@H](C)C1CC[C@H]2[C@@H]3CC=C4C[C@@H](OP(=O)(N5CC5)N5CC5)CC[C@]4(C)[C@H]3CC[C@]12C)C(C)C (some centres undefined)
inactive: dose: 12.5 mg/kg/injection, schedule: Q01DX009 (ip), vehicle: saline with Tween-80 97 % of control | dose: 25.0 mg/kg/injection, schedule: Q01DX009 (ip), vehicle: saline with Tween-80 92 % of control | dose: 50.0 mg/kg/injection, schedule: Q01DX009 (ip), vehicle: saline with Tween-80 93 % of control | [8] 92 % of control | [9] 108 % of control | [10] 97 % of control

COC(c1ccccc1)C(c1ccccc1)[N+]1(C)CCCCC1 (centres undefined)
inactive: dose: 75.0 mg/kg/injection, schedule: Q01DX001 (ip), vehicle: saline 97 % of control | dose: 150.0 mg/kg/injection, schedule: Q01DX001 (ip), vehicle: saline 113 % of control | dose: 300.0 mg/kg/injection, schedule: Q01DX001 (ip), vehicle: saline 97 % of control

CCC(C)C(C)OC(=O)c1cc([N+](=O)[O-])cc([N+](=O)[O-])c1 (centres undefined)
inactive: [8] 105 % of control | [4] 92 % of control | [9] 104 % of control | [5] 97 % of control | [10] 90 % of control | [6] 103 % of control

O=C(COc1ccccc1)N/N=C/c1cccc([N+](=O)[O-])c1
inactive: [9] 89 % of control | [10] 94 % of control

Cc1ccc(S(=O)(=O)[n+]2ccccc2)cc1
inactive: [11] 97 % of control | [12] 103 % of control | [16] 95 % of control
